Measurements from US20210269848A1, “COMPOSITION OF MICROORGANISMS INDICATING DECONTAMINATION” (NOVOLYZE, priority 2018, published 2021).

Key:
E. faecium ATCC 8459 [1] = assay: Log loss after heat treatment on macadamia; format: cell-based; details: 3% dye
Procedure: (§1) “Log loss” refers to the difference between initial viability and viability at a given time.
(§2) The test is performed for the following 3 strains: E. faecium ATCC 8459, P. agglomerans CNCM I-5055 and A. pascens CNCM I-5181.
(§3) Addition of 10% pure lyophilisate of the strains to 5 g of maltodextrin. Vortexing for homogenization. Addition of 3% of dye. Vortexing. Addition of 1% of the dyed strain mixture diluted 1/10 to 5 g of macadamia. Mixing with a sterile spatula. Drying 2 h. Deposition of 0.3 g in Eppendorf tubes then heat treatment of the tubes in a dry bath at 90 and 100° C. for 0, 2, 5, 10 minutes

A. pascens CNCM I-5181 [2] = assay: Log loss after heat treatment on macadamia; format: cell-based; details: 3% dye
Procedure: as §1, §2, §3

[3] = tested on: P. agglomerans CNCM I-5055; assay: Log loss after heat treatment on macadamia; format: cell-based; details: 3% dye
Procedure: as §1, §2, §3

E. faecium ATCC 8459 [4] = assay: Log loss after heat treatment on nonfat dried milk NFDM; format: cell-based; details: 3% dye
Procedure: as §1, §2
(§4) Addition of 10% of pure lyophilisate of the strains to 5 g of maltodextrin. Vortexing for homogenization. […] Vortexing. Addition of 1% of the dyed strain mixture diluted 1/10 to 5 g NFDM. Vortexing. Deposition of 0.1 g in Eppendorf tubes then heat treatment of the tubes in a dry bath at 90 and 100° C. for 2, 5 and 10 minutes

A. pascens CNCM I-5181 [5] = assay: as above; format: cell-based; details: 3% dye
Procedure: as §1, §2, §4

[6] = tested on: P. agglomerans CNCM I-5055; assay: as above; format: cell-based; details: 3% dye
Procedure: as §1, §2, §4

Enterococcus faecium = assay: Heat resistance (log loss) of E. faecium compositions with brilliant blue FCF at 100° C.; format: cell-based; details: 3% dye
Procedure: as §1
Method: The Enterococcus faecium strain in dry form was mixed with an inert support (maltodextrin) and with each dye individually. The subsequent mixture is placed in an Eppendorf tube in a dry bath at a temperature of 100° C. Samples were taken at 2, 5 and 10 min and cell counts were performed on TSA (Trypticase Soy Agar) medium for 24 h at 37° C.
Must: addition of 3% of blue dye powder to 5 mL of fermentation must in a sterile jar. Vortexing for homogenization, distribution in tubes and heat treatment.
Pure: addition of 3% of dye to 5 g of pure lyophilisate in a sterile jar. Vortexing for homogenization, distribution in tubes and heat treatment.
Support: addition of 1% of pure lyophilisate to 5 g of maltodextrin in a sterile jar (1/100 dilution). Vortexing for homogenization, then addition of 3% of dye. Vortexing then distribution in tubes and heat treatment.

E. faecium ATCC 8459 [7] = assay: Log loss after heat treatment on black pepper; format: cell-based; details: 3% dye
Procedure: as §1
(§5) The test is performed for the following 3 strains: E. faecium ATCC 8459, P. agglomerans CNCM I-5055 and A. pascens CNCM I-5181
as §3, with “10% of” for “10%”, “Addition of 3% of dye.” left out, “black pepper followed by a spray of wet fixing agent for good adhesion.” for “macadamia.”, “0.2” for “0.3”, “for” for “for 0,”, “5 and” for “5,”

A. pascens CNCM I-5181 [8] = assay: Log loss after heat treatment on black pepper; format: cell-based; details: 3% dye
Procedure: as §1, §5
as §3, with “10% of” for “10%”, “Addition of 3% of dye.” left out, “black pepper followed by a spray of wet fixing agent for good adhesion.” for “macadamia.”, “0.2” for “0.3”, “for” for “for 0,”, “5 and” for “5,”

[9] = tested on: P. agglomerans CNCM I-5055; assay: Log loss after heat treatment on black pepper; format: cell-based; details: 3% dye
Procedure: as §1, §5
as §3, with “10% of” for “10%”, “Addition of 3% of dye.” left out, “black pepper followed by a spray of wet fixing agent for good adhesion.” for “macadamia.”, “0.2” for “0.3”, “for” for “for 0,”, “5 and” for “5,”

Compound: CCN(Cc1cccc(S(=O)(=O)O)c1)c1ccc(C(=C2C=CC(=[N+](CC)Cc3cccc(S(=O)(=O)O)c3)C=C2)c2ccccc2S(=O)(=O)[O-])cc1 [brilliant blue FCF]
- Log loss at 90° C. (E. faecium ATCC 8459 [1]; 2 min): 0.2
- Log loss at 100° C. (E. faecium ATCC 8459 [1]; 2 min): 0.24
- Log loss at 90° C. (E. faecium ATCC 8459 [1]; 5 min): 0.53
- Log loss at 100° C. (E. faecium ATCC 8459 [1]; 5 min): 0.47
- Log loss at 90° C. (E. faecium ATCC 8459 [1]; 10 min): 1.2
- Log loss at 100° C. (E. faecium ATCC 8459 [1]; 10 min): 1.24
- Log loss at 90° C. (A. pascens CNCM I-5181 [2]; 2 min): 0.25
- Log loss at 100° C. (A. pascens CNCM I-5181 [2]; 2 min): 0.05
- Log loss at 90° C. (A. pascens CNCM I-5181 [2]; 5 min): 0.18
- Log loss at 100° C. (A. pascens CNCM I-5181 [2]; 5 min): 0.12
- Log loss at 90° C. (A. pascens CNCM I-5181 [2]; 10 min): 0.38
- Log loss at 100° C. (A. pascens CNCM I-5181 [2]; 10 min): 0.6
- Log loss at 90° C. ([3]; 2 min): 0.3
- Log loss at 100° C. ([3]; 2 min): 0.14
- Log loss at 90° C. ([3]; 5 min): 0.6
- Log loss at 100° C. ([3]; 5 min): 0.15
- Log loss at 90° C. ([3]; 10 min): 0.14
- Log loss at 100° C. ([3]; 10 min): 1.36
- effect on viability of the indicator microorganisms (indicator microorganisms): does not affect the viability of the indicator microorganisms
- Log loss at 90° C. (E. faecium ATCC 8459 [4]; 2 min): 0.51
- Log loss at 100° C. (E. faecium ATCC 8459 [4]; 2 min): 0.36
- Log loss at 90° C. (E. faecium ATCC 8459 [4]; 5 min): 0.36
- Log loss at 100° C. (E. faecium ATCC 8459 [4]; 5 min): 0.59
- Log loss at 90° C. (E. faecium ATCC 8459 [4]; 10 min): 0.46
- Log loss at 100° C. (E. faecium ATCC 8459 [4]; 10 min): 1.29
- Log loss at 90° C. (A. pascens CNCM I-5181 [5]; 2 min): 0.06
- Log loss at 100° C. (A. pascens CNCM I-5181 [5]; 2 min): 0.26
- Log loss at 90° C. (A. pascens CNCM I-5181 [5]; 5 min): 0.46
- Log loss at 100° C. (A. pascens CNCM I-5181 [5]; 5 min): 0.35
- Log loss at 90° C. (A. pascens CNCM I-5181 [5]; 10 min): 0.62
- Log loss at 100° C. (A. pascens CNCM I-5181 [5]; 10 min): 1.82
- Log loss at 90° C. ([6]; 2 min): 0.07
- Log loss at 100° C. ([6]; 2 min): 0.13
- Log loss at 90° C. ([6]; 5 min): 0.07
- Log loss at 100° C. ([6]; 5 min): 0.67
- Log loss at 90° C. ([6]; 10 min): 0.37
- Log loss at 100° C. ([6]; 10 min): 0.72
- Log loss at 100° C. (Enterococcus faecium; Must (fermentation must), 2 min): 1.23
- Log loss at 100° C. (Enterococcus faecium; Must (fermentation must), 5 min): 1.44
- Log loss at 100° C. (Enterococcus faecium; Must (fermentation must), 10 min): 2.16
- Log loss at 100° C. (Enterococcus faecium; Pure (lyophilisate without support), 2 min): 0.02
- Log loss at 100° C. (Enterococcus faecium; Pure (lyophilisate without support), 5 min): 0.17
- Log loss at 100° C. (Enterococcus faecium; Pure (lyophilisate without support), 10 min): 0.50
- Log loss at 100° C. (Enterococcus faecium; Support (maltodextrin), 2 min): 0.13
- Log loss at 100° C. (Enterococcus faecium; Support (maltodextrin), 5 min): 0.94
- Log loss at 100° C. (Enterococcus faecium; Support (maltodextrin), 10 min): 1.97
- Log loss at 90° C. (E. faecium ATCC 8459 [7]; 2 min): 0.31
- Log loss at 100° C. (E. faecium ATCC 8459 [7]; 2 min): 1.35
- Log loss at 90° C. (E. faecium ATCC 8459 [7]; 5 min): 0.82
- Log loss at 100° C. (E. faecium ATCC 8459 [7]; 5 min): 1.37
- Log loss at 90° C. (E. faecium ATCC 8459 [7]; 10 min): 1.46
- Log loss at 100° C. (E. faecium ATCC 8459 [7]; 10 min): 2.19
- Log loss at 90° C. (A. pascens CNCM I-5181 [8]; 2 min): 0.59
- Log loss at 100° C. (A. pascens CNCM I-5181 [8]; 2 min): 0.27
- Log loss at 90° C. (A. pascens CNCM I-5181 [8]; 5 min): 0.76
- Log loss at 100° C. (A. pascens CNCM I-5181 [8]; 5 min): 0.64
- Log loss at 90° C. (A. pascens CNCM I-5181 [8]; 10 min): 0.85
- Log loss at 100° C. (A. pascens CNCM I-5181 [8]; 10 min): 0.85
- Log loss at 90° C. ([9]; 2 min): 1.12
- Log loss at 100° C. ([9]; 2 min): 1.26
- Log loss at 90° C. ([9]; 5 min): 1.6
- Log loss at 100° C. ([9]; 5 min): 1.45
- Log loss at 90° C. ([9]; 10 min): 1.77
- Log loss at 100° C. ([9]; 10 min): 2.14
